Reference: ChEMBL document CHEMBL2040706, “Inhibition of hepatitis C virus NS3 helicase by manoalide” (J Nat Prod, 2012)
Activity calls are given as the source filed them. The rule behind the calls is not given here.

How the values were obtained:
[1] = system: Hepacivirus hominis; assay: Inhibition of HCV NS3 RNA helicase activity using […] as substrate measured every 5 secs for 5 mins and every 30 secs up to 30 mins by photoinduced electron transfer-based fluorescence assay
[2] = Inhibition of HCV NS3 RNA helicase activity using [32Pgamma]-labelled partial duplex RNA as substrate incubated for 15 mins prior to ATP addition measured after 30 mins by PAGE analysis; set-up: species or system Hepacivirus hominis
[3] = (§1) Inhibition of HCV NS3 ATPase activity using [32gamma]ATP as substrate after 30 mins by thin layer chromatography analysis in the presence of poly(U)RNA; set-up: species or system Hepacivirus hominis
[4] = system: Hepacivirus hominis; assay: as §1
[5] = system: Hepacivirus hominis; assay: Noncompetitive inhibition of HCV NS3 ATPase activity using 1 to 8 mM [32gamma]ATP at 0.1 mM by Lineweaver-Burk plot analysis
[6] = target: T1, ATP-dependent DNA/RNA helicase DHX36 (Homo sapiens) (UniProt Q9H2U1); assay: Inhibition of human DHX36/RHAU ATPase activity using [32Pgamma]ATP as substrate for 30 mins in the presence of poly(U)RNA
T1 sequence (whole entry): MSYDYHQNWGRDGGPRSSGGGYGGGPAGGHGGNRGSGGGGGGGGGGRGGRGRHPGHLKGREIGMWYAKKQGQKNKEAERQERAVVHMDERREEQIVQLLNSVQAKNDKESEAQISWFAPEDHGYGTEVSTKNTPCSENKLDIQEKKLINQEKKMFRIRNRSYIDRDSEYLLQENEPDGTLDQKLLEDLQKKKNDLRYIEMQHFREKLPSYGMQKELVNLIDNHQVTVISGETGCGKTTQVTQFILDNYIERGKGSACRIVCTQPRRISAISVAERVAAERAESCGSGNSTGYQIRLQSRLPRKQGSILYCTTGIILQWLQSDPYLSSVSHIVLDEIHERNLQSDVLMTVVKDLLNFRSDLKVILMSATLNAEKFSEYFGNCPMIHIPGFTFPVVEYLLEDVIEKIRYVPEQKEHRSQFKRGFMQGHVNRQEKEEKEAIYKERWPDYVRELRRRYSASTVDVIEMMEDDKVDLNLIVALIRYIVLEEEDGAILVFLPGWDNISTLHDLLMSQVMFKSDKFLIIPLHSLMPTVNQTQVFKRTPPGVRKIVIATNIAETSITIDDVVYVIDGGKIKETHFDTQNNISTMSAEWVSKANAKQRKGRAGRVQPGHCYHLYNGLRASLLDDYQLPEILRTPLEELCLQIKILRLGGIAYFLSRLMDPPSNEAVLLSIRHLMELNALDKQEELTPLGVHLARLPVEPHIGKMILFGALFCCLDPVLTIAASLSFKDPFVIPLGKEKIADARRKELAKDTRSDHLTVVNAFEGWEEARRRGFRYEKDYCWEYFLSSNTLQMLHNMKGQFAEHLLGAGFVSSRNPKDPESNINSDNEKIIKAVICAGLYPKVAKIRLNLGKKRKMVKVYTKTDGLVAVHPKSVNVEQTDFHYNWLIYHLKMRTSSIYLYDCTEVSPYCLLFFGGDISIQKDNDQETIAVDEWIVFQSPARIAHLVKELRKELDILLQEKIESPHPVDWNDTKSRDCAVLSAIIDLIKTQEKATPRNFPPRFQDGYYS

[7] = system: Hepacivirus hominis; assay: Inhibition of HCV NS3 binding to human 5'-[32Pgamma]-labelled lethal-7 microRNA precursor ssRNA at 0.1 mM after 15 mins by PAGE analysis
[8] = system: Hepacivirus hominis; assay: Inhibition of HCV NS3 ATPase activity using [32Pgamma]ATP as substrate at 0.1 mM after 60 mins by thin layer chromatography analysis in the absence of poly(U)RNA
[9] = system: Hepacivirus hominis; assay: Binding affinity to HCV NS3 helicase assessed as increase in fluorescence after 15 mins by isothermal denaturation assay

With CC1=C(CC/C(C)=C/CCC2=CC[C@H](C3=CC(=O)O[C@H]3O)O[C@H]2O)C(C)(C)CCC1 [MANOALIDE] the inhibition [1] was “Active”, the IC50 [2] was 15 µM and the IC50 [3] was 70 µM. For the same molecule, the inhibition [4] was “Dose-dependent effect”, the inhibition [5] was “Active” and the inhibition [6] was “Active”. For the same molecule, the inhibition [7] was “Active”, the inhibition [8] was “Active” and the Activity [9] was “Dose-dependent effect”.
